The results in this text go back to ChEMBL document CHEMBL5143585, “Discovery and characterization of benzyloxy piperidine based dopamine 4 receptor antagonists” (Bioorg Med Chem Lett, 2022).

Data set [1] is described as follows: Initial plasma concentration in rat at 0.25 mg/kg, iv. The note with it: in vivo, iv, 0.25 mg/kg. It is filed as ADME, organism-based.
Data set [2] concerns the target T1, D(1B) dopamine receptor (Homo sapiens, UniProt P21918). As to the kind of experiment: Displacement of [3H]-SCH23390 from human D5 receptor expressed in HEK293 cell membrane by competitive inhibition based analysis. It is filed as cell membranes. In general terms: Displacement assays read how much labelled ligand stays bound in the presence of the test substance.

Data set [3] can be described thus: AUC in rat at 0.25 mg/kg, iv measured for 24 hrs. It is filed as ADME, organism-based. Also on record: time 24 hrs, dose 0.25 mg/kg, route iv. To be noted: in vivo.
The nature of data set [4]: Protein binding in human plasma assessed as unbound fraction. It is filed as ADME, cell-free.
The nature of data set [5]: Ratio of drug level in rat brain to plasma at 0.25 mg/kg, iv measured on day 2 at 0.25 hrs post-dose. It is filed as ADME, organism-based. To be noted: time 2 day, read-out: BPR.
Data set [6] in a line: Plasma concentration in rat at 0.25 mg/kg, iv measured on day 2 at 0.25 hrs post-dose. It is filed as ADME, organism-based. To be noted: time 2 day.
Data set [7] is described as follows: Volume of distribution at steady state in rat at 0.25 mg/kg, iv measured for 24 hrs. It is filed as ADME, organism-based. The note with it: in vivo.
In data set [8] the target is T1, D(1B) dopamine receptor. As to the kind of experiment: Displacement of [3H]-SCH23390 from human D5 receptor expressed in HEK293 cell membrane at 10 uM by competitive inhibition based analysis. It is filed as cell membranes.
The target in data set [9] is D(2) dopamine receptor (Homo sapiens) (UniProt P14416). As to the kind of experiment: Displacement of [3H]N-methylspiperone from human D2 receptor expressed in HEK293 cell membrane at 10 uM by competitive inhibition based analysis. It is filed as cell membranes.
Sequence of D(2) dopamine receptor (Homo sapiens) (P14416 whole entry): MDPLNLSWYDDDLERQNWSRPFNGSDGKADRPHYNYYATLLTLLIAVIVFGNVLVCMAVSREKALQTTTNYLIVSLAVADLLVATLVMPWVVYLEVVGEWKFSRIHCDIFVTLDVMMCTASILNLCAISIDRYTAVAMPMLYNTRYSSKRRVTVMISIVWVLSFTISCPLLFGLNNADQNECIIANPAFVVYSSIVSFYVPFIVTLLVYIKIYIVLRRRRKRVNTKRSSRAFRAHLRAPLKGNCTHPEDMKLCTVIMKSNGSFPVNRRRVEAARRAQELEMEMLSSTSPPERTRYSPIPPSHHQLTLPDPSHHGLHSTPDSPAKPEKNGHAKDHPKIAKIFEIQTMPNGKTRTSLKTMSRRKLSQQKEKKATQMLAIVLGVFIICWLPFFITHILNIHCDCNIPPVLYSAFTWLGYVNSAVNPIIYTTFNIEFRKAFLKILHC
Data set [10] in a line: Drug uptake in rat brain at 0.25 mg/kg, iv measured on day 2 at 0.25 hrs post-dose. It is filed as ADME, organism-based. To be noted: time 2 day, read-out: Drug uptake.
The target in a further data set is T2, D(4) dopamine receptor (Homo sapiens, UniProt P21917).
T2 sequence (P21917 whole entry): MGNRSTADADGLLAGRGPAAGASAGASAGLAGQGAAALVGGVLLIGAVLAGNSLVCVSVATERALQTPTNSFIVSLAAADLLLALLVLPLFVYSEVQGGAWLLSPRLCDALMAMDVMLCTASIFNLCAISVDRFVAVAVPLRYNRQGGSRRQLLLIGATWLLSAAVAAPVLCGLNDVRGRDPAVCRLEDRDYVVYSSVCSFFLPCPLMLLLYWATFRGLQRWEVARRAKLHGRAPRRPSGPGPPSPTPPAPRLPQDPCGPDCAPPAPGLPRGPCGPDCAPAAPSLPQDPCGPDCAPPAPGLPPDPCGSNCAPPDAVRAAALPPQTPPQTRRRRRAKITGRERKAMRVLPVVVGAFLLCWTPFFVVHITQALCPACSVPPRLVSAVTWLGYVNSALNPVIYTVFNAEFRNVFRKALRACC
As to the kind of experiment: Displacement of [3H]N-methylspiperone from human D4 receptor expressed in HEK293 cell membrane by competitive inhibition based analysis. It is filed as cell membranes.

For a further data set, the target named is D(3) dopamine receptor (Homo sapiens, UniProt P35462). As to the kind of experiment: Displacement of [3H]N-methylspiperone from human D3 receptor expressed in HEK293 cell membrane at 10 uM by competitive inhibition based analysis. It is filed as cell membranes.
Sequence of D(3) dopamine receptor (P35462 whole entry): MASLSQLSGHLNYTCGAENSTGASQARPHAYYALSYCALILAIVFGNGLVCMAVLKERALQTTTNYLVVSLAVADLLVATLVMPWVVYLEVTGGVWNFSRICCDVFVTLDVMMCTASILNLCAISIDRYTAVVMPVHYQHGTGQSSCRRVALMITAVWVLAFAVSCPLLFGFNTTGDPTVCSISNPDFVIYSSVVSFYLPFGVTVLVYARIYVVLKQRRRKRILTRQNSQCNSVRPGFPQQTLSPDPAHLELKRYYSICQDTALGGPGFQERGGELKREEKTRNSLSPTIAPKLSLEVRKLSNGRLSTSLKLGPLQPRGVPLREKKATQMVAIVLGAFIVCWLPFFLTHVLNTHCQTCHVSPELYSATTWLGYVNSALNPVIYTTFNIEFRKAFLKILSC
A short description of data set [11]: Protein binding in mouse plasma assessed as unbound fraction. It is filed as ADME, cell-free.
Data set [12] addresses T3, D(1A) dopamine receptor (Homo sapiens, UniProt P21728). As to the kind of experiment: Displacement of [3H]-SCH23390 from human D1 receptor expressed in HEK293 cell membrane at 10 uM by competitive inhibition based analysis. It is filed as cell membranes.
Data set [13] is described as follows: Half-life in rat at 0.25 mg/kg, iv measured for 24 hrs. To be noted: in vivo. It is filed as ADME, organism-based.
Data set [14] is described as follows: Stability of the compound in mouse plasma. It is filed as ADME, cell-free.
Data set [15] has as its target T3, D(1A) dopamine receptor. As to the kind of experiment: Displacement of [3H]-SCH23390 from human D1 receptor expressed in HEK293 cell membrane by competitive inhibition based analysis. It is filed as cell membranes.
The nature of data set [16]: Intrinsic clearance in human liver microsomes. It is filed as ADME, Microsome. The note with it: read-out: CLH. (Liver microsomes are a subcellular fraction often used to study metabolism.)

Molecules are shown by their SMILES.

T1 sequence (P21918 whole entry): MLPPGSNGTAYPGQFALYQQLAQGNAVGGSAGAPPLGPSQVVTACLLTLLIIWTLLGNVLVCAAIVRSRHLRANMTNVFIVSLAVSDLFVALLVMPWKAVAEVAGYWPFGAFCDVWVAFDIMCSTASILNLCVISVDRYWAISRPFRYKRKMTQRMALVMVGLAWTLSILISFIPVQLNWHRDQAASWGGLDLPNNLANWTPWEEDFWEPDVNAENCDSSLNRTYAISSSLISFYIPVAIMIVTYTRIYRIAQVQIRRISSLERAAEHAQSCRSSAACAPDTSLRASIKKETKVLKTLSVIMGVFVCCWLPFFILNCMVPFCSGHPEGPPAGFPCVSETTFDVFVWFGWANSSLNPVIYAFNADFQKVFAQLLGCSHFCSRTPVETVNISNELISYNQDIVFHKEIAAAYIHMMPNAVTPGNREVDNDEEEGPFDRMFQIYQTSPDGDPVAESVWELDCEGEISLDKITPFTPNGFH
T3 sequence (P21728 whole entry): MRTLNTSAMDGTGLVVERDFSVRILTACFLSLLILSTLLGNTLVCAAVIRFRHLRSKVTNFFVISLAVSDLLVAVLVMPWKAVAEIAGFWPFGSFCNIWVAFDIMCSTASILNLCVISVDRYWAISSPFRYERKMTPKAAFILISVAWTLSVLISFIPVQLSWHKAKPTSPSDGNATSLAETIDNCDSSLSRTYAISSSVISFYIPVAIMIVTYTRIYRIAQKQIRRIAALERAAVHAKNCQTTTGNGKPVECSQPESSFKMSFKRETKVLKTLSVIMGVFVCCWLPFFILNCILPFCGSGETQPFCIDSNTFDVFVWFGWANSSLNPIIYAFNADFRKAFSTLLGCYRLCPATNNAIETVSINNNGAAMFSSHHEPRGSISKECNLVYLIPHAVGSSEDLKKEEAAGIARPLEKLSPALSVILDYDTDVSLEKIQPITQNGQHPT

In [1], `Fc1cc(COC2CCN(Cc3cn4ccccc4n3)CC2)ccc1Cl` returned a C0 of 52.2 ng/mL. The Ki on D(1B) dopamine receptor [2] was above 10 µM; at D(4) dopamine receptor, 134 nM. Moreover, the AUC in [3] is 125 ng·h/mL. Moreover, the Fu in data set [4] is given as 1.8%; in data set [11], 22.4%. Moreover, the Kp at 48 h in data set [5] was found to be 15.5. In addition, the concentration at 48 h in data set [6] came out at 29.9 ng/mL; in data set [10], 453 ng/g. In [7], this compound showed a Vdss of 5.1 L/kg. In addition, the inhibition at D(1B) dopamine receptor [8] (filed as antagonist) is 57%; in data set [9], below 50%; at D(3) dopamine receptor it was below 50%; at D(1A) dopamine receptor [12], below 50%. Moreover, the IC50 on D(4) dopamine receptor was 135 nM. In data set [13], this compound gave a t1/2 of 36 min.

`Cc1cc(NC(=O)CN2CCC(OCc3ccc(F)c(F)c3)CC2)ccc1F`: in data set [4], the Fu was determined as 0.5%. The inhibition (on D(1B) dopamine receptor [8]; in [9]; at D(3) dopamine receptor; on D(1A) dopamine receptor [12]) was below 50% each time. On D(4) dopamine receptor, this compound gave an IC50 of 120 nM. For the same compound, at D(4) dopamine receptor, the inhibitory constant (Ki) came to 121 nM. Further, the Stability result in [14] is given as “Unstable”.

Consider `FC(F)(F)c1cccc(COC2CCN(Cc3cc4ccc(Cl)cc4[nH]3)CC2)c1`, for which the Fu in [4] and in data set [11] was 0.1% throughout. The inhibition on D(1B) dopamine receptor [8] was below 50%; in [9], below 50%; on D(3) dopamine receptor, below 50%; on D(1A) dopamine receptor [12] (filed as antagonist), 55%. Moreover, the IC50 at D(4) dopamine receptor is 209 nM. Also, the Ki at D(4) dopamine receptor was 211 nM; at D(1A) dopamine receptor [15], 1190 nM.

For the compound `COc1ccc(CN2CCO[C@H](COc3ccccc3)C2)cc1F`, the CLint scaled in [16] was 71.9 mL/min/kg. In [9], this compound displayed an inhibition below 50%. On D(4) dopamine receptor, this compound gave an IC50 of 5.01 nM and a Ki of 5.8 nM. In addition, in data set [11], the Fu was 3.7%.

The Ki is a dissociation constant, usually derived from enzyme kinetics or from competition with a known ligand. Low readings indicate higher affinity, high ones lower affinity. A word on the AUC: it is the area under the concentration-time curve, a measure of exposure. A high value points to more exposure. The term Vdss denotes the apparent volume that relates the amount in the body to the concentration in plasma or blood. A lower Vdss goes with little distribution into tissue. By inhibition is commonly meant the percentage by which the read-out fell short of the control. A word on the IC50: it is the midpoint of a concentration-inhibition curve. A lower IC50 goes with greater potency.
